# Results published in US5750534A (priority 1996, dated 1998).
# “Also recorded” adds a separate entry of the source. Where a name gives a salt, the structure may show the parent alone. Read-outs that look alike come from different tables or passages of the source.
# Legend:
# [1] = Shafer et al., Anesthesiology 1991; cited from earlier work
# [2] = cited from earlier work; for dosing interval: Hemstrom et al.
# humans (analgesia) = assay: Estimate of human analgesic duration and dose from rat/human dose ratio; conditions: 1.56 μM/kg i.m., calculated from rat
# [3] = tested on: Sprague-Dawley rats (antinociceptive threshold); assay: Rat cold ethanol tail-flick test, pharmacodynamic study of nalbuphine arachidate; assay type: in vivo; conditions: for analgesic effect (significance): FIGS. 21 and 22
# [4] = tested on: Sprague-Dawley rats (nociceptive threshold); assay type: in vivo, rat
# [5] = plasma half time; FIG. 18
# patients (analgesia) = conditions: 10 mg/65 kg (0.154 mg/kg) i.m., 65-kg patient; cited from earlier work
# humans = assay: Analgesic effect for human intramuscular injection; assay type: in vivo; conditions: human i.m.
# Water solubility = assay type: physicochemical
# [6] = 25 micromole/kg i.m., prodrugs in sesame oil, Table 2 / FIG. 17
# [7] = 25 micromole/kg i.m., Table 2 / FIG. 17
smiles,measurement,setting,value
CO[C@]12CC[C@@]3(C[C@@H]1[C@](C)(O)C(C)(C)C)[C@H]1Cc4ccc(O)c5c4[C@@]3(CCN1CC1CC1)[C@H]2O5 [buprenorphine],dose needed to elicit the same analgesic effect,[1],0.3 mg
Oc1ccc2c(c1)[C@@]13CCCC[C@@]1(O)[C@@H](C2)N(CC1CCC1)CC3 [butorphanol],dose needed to elicit the same analgesic effect,[1],2 mg
CCCCCCCCCC(=O)OC1(c2ccc(Cl)cc2)CCN(CCCC(=O)c2ccc(F)cc2)CC1 [haloperidol decanoate],dosing interval,[2],1-2 times a month
O=C(CCCN1CCC(O)(c2ccc(Cl)cc2)CC1)c1ccc(F)cc1 [haloperidol],dosing interval,[2],2-4 times a day
CN1CC[C@]23c4c5ccc(O)c4O[C@H]2[C@@H](O)C=C[C@H]3[C@H]1C5 [morphine],dose needed to elicit the same analgesic effect,[1],10 mg
CCCCCCCCCCCCCCCCCCCC(=O)Oc1ccc2c3c1OC1C(O)CCC4(O)C(C2)N(CC2CCC2)CCC314 (stereo not shown) [nalbuphine arachidate],estimated analgesic duration in humans,humans (analgesia),4 to 5 days
same,duration of analgesic effect in words,"[3]; 25 μM/kg i.m., rats",longer than that of nalbuphine HCl; also recorded: long duration of analgesic effect; also recorded: very long duration of analgesic effect
same,duration of analgesic effect,"[3]; 25 μM/kg i.m., sesame oil suspension, rats",4 to 5 days
same,analgesic effect (significance),[3]; 25 μM/kg i.m.,significant analgesic effects
O=C(Oc1ccc2c3c1OC1C(O)CCC4(O)C(C2)N(CC2CCC2)CCC314)c1ccccc1 (stereo not shown) [nalbuphine benzoate],50% analgesic effect (time),[4]; [6],3.5 days
same,20% analgesic effect (time),"[4]; 25 micromole/kg i.m., Table 2",4.0 D
same,10% analgesic effect (time),[4]; [7],4.0 D
CCCCCCCCCC(=O)Oc1ccc2c3c1O[C@H]1[C@@H](O)CC[C@@]4(O)[C@@H](C2)N(CC2CCC2)CC[C@]314 [nalbuphine decanoate],50% analgesic effect (time),[4]; [6],6.7 days
same,20% analgesic effect (time),"[4]; 25 micromole/kg i.m., Table 2",7.5 D
same,10% analgesic effect (time),[4]; [7],8.2 D
same,increase of duration over nalbuphine hydrochloride,[5],30 times
CCCCCCC(=O)Oc1ccc2c3c1OC1C(O)CCC4(O)C(C2)N(CC2CCC2)CCC314 (stereo not shown) [nalbuphine enanthate],50% analgesic effect (time),[4]; [6],3.9 days
same,20% analgesic effect (time),"[4]; 25 micromole/kg i.m., Table 2",3.4 D
same,10% analgesic effect (time),[4]; [7],3.6 D
"Oc1ccc2c3c1O[C@H]1[C@@H](O)CC[C@@]4(O)[C@@H](C2)N(CC2CCC2)CC[C@]314 [nalbuphine hydrochloride, reference compound]","analgesic duration, clinical",patients (analgesia),2 to 3 h
same,"10% analgesic effect (time), human",humans,5.0 h
same,"20% analgesic effect (time), human",humans,4.4 h
same,"50% analgesic effect (time), human",humans; 0.8 nmole/kg as printed,2.5 h
same,10% analgesic effect (time),"[4]; rat, in vivo",5.0 H
same,"10% analgesic effect (time), rat","[4]; rat, in vivo",2.4 h
same,"10% analgesic effect (time), text","[4]; rat, in vivo",12 h
same,20% analgesic effect (time),"[4]; rat, in vivo",4.4 H
same,"20% analgesic effect (time), rat","[4]; rat, in vivo",2.1 h
same,50% analgesic effect (time),"[4]; rat, in vivo",2.5
same,"50% analgesic effect (time), rat","[4]; rat, in vivo",1.1 h
same,analgesic duration (Discussion),"[3]; 25 μM/kg (9.86 mg/kg) i.m., rats",about 2 hours
same,duration of analgesic effect,"[3]; 25 μM/kg i.m., in 0.9% saline, rats",0.17 days
same,analgesic effect (significance),[3]; 25 μM/kg i.m.,significant analgesic effects
CC(C)(C)C(=O)Oc1ccc2c3c1OC1C(O)CCC4(O)C(C2)N(CC2CCC2)CCC314 (stereo not shown) [nalbuphine pivalate],50% analgesic effect (time),[4]; [6],3.2 days
same,20% analgesic effect (time),"[4]; 25 micromole/kg i.m., Table 2",3.6 D
same,10% analgesic effect (time),[4]; [7],3.8 D
CCC(=O)Oc1ccc2c3c1OC1C(O)CCC4(O)C(C2)N(CC2CCC2)CCC314 (stereo not shown) [nalbuphine propionate monohydrochloride],water solubility,Water solubility,water soluble
CCC(=O)Oc1ccc2c3c1OC1C(O)CCC4(O)C(C2)N(CC2CCC2)CCC314 (stereo not shown) [nalbuphine propionate],50% analgesic effect (time),[4]; [6],0.417 days
same,10% analgesic effect (time),"[4]; 25 micromole/kg i.m., Table 2",12 H
same,20% analgesic effect (time),"[4]; 25 micromole/kg i.m., Table 2",11 H
Oc1ccc2c3c1O[C@H]1[C@@H](O)CC[C@@]4(O)[C@@H](C2)N(CC2CCC2)CC[C@]314 [nalbuphine],amount of released nalbuphine free base (FIG. 15),"between 17 and 28 hours, p<0.05",less in the preparations with sesame oil than with peanut oil ester and the control
same,release times (FIG. 16),nalbuphine base versus hydrochloride,significantly increased
C#C[C@]1(OC(=O)CCCCCC)CC[C@H]2[C@@H]3CCC4=CC(=O)CC[C@@H]4[C@H]3CC[C@@]21C [northisterone enanthate],dosing interval in words,[2]; Joshi et al.,once every 2 months
